According to patent US20230348583A1, “TGFbeta1-BINDING IMMUNOGLOBULINS AND USE THEREOF” (SCHOLAR ROCK, INC., priority 2016, published 2023):

Experiments:
rats = conditions: Frazier et al. 2007; cited from earlier work
cynomolgus macaques = conditions: cynomolgus monkey, in vivo; cited from earlier work
human cancer patients = conditions: in vivo; cited from earlier work
rats and dogs = conditions: Stauber et al. 2014; cited from earlier work
female F344/NHsd rats = assay: Rat toxicity study; conditions: for Aortic root: Hemorrhage, Minimal / Aortic root: Infiltrate, mixed cell, Minimal / Atrium: Hemorrhage, Minimal / Atrium: Hyperplasia, endothelium, Minimal / Atrium: Infiltrate, mixed cell, Minimal / Atrium: Infiltrate, mixed cell, Slight / Coronary artery: Necrosis with inflammation, Slight / Heart valves: Valvulopathy, Minimal / Heart valves: Valvulopathy, Moderate / Heart valves: Valvulopathy, Slight / Myocardium: Degeneration/necrosis, Minimal / Myocardium: Degeneration/necrosis, Slight / Myocardium: Hemorrhage, Slight / Myocardium: Infiltrate, mixed cell, Slight: animals affected (n=5)
Description: Animal body weight was determined at days 1, 3, and 7 of the dosing phase. Animals were sacrificed at day 8 and necropsies performed.

## O=C(NC1CCOCC1)c1ccc(-c2cc(-c3c[nH]nc3-c3ccccn3)ccn2)cc1 [GW788388]
rats
  Bone toxicity in rats: induced physeal dysplasia

## Fresolimumab: a pan TGFβ antibody capable of neutralizing all human isoforms of TGFβ
Cynomolgus macaques
  Toxicity after multiple administrations: induce an epithelial hyperplasia of the gingiva, bladder, and of the nasal turbinate epithelium
Human cancer patients
  Most notable adverse reaction in clinical trials: induction of cutaneous keratoacanthomas and/or squamous cell carcinomas

## Cc1cccc(-c2nn3c(c2-c2ccnc4ccc(C(N)=O)cc24)CCC3)n1 [LY2157299]
Rats and dogs
  Organ toxicities on chronic (≥3 months) administration: caused multiple organ toxicities

## c1ccc(-c2nn3c(c2-c2ccnc4cc(OCCN5CCOCC5)ccc24)CCC3)nc1 [LY2109761]
Female F344/NHsd rats; 200 mg/kg or 300 mg/kg
  Body weight during the dosing phase: decreased body weight
Female F344/NHsd rats; 200 mg/kg oral gavage once daily, n=5, day 7
  Animals found dead: Two
Female F344/NHsd rats; 300 mg/kg oral gavage once daily, all animals (n=5), days 3, 6, or 7
  Mortality: sacrificed in a moribund condition or found dead
Female F344/NHsd rats; LY2109761 200 mg/kg/day
  Heart, Absolute Weight: 112 percentage control mean value
  Heart, Body Weight Ratio: 132 percentage control mean value
  Heart, Brain Weight Ratio: 113 percentage control mean value
  Aortic root: Hemorrhage, Minimal: 1
  Aortic root: Infiltrate, mixed cell, Minimal: 1
  Atrium: Hemorrhage, Minimal: 1
  Atrium: Hyperplasia, endothelium, Minimal: 1
  Atrium: Infiltrate, mixed cell, Minimal: 2
  Atrium: Infiltrate, mixed cell, Slight: 0
  Coronary artery: Necrosis with inflammation, Slight: 0
  Heart valves: Valvulopathy, Minimal: 1
  Heart valves: Valvulopathy, Moderate: 1
  Heart valves: Valvulopathy, Slight: 3
  Myocardium: Degeneration/necrosis, Minimal: 0
  Myocardium: Degeneration/necrosis, Slight: 1
  Myocardium: Hemorrhage, Slight: 1
  Myocardium: Infiltrate, mixed cell, Slight: 0
Female F344/NHsd rats; LY2109761 300 mg/kg/day
  Aortic root: Hemorrhage, Minimal: 0
  Aortic root: Infiltrate, mixed cell, Minimal: 0
  Atrium: Hemorrhage, Minimal: 2
  Atrium: Hyperplasia, endothelium, Minimal: 3
  Atrium: Infiltrate, mixed cell, Minimal: 3
  Atrium: Infiltrate, mixed cell, Slight: 1
  Coronary artery: Necrosis with inflammation, Slight: 1
  Heart valves: Valvulopathy, Minimal: 2
  Heart valves: Valvulopathy, Moderate: 0
  Heart valves: Valvulopathy, Slight: 3
  Myocardium: Degeneration/necrosis, Minimal: 1
  Myocardium: Degeneration/necrosis, Slight: 1
  Myocardium: Hemorrhage, Slight: 0
  Myocardium: Infiltrate, mixed cell, Slight: 1
Female F344/NHsd rats; each of 200 mg/kg and 300 mg/kg groups, n=5
  Animals with abnormally-shaped sternum: four
Female F344/NHsd rats; one animal at 300 mg/kg found dead on Day 3, with enlarged thymus (edema)
  Clear fluid in the thoracic cavity: 2.5 mL
Female F344/NHsd rats; ≥200 mg/kg
  Heart weight: Increased heart weights
  Microscopic heart valve findings: exhibited heart valve findings (i.e., valvulopathy)
